Test results published in patent US8394831B2, “Carbonylamino-derivatives as novel inhibitors of histone deacetylase” (Janssen Pharmaceutica, N.V., priority 2002, dated 2013).

target: histone deacetylase (HeLa nuclear extracts); test: In vitro assay for inhibition of histone deacetylase; type: biochemical; design: key: pIC50 = -log IC50; details: [3H]acetylated histone H4 peptide substrate
Method: The in vitro assay for inhibition of histone deacetylase (see example C.1) measures the inhibition of HDAC enzymatic activity obtained with the compounds of formula (I).
HeLa nuclear extracts (supplier: Biomol) were incubated at 60 μg/ml with 2×10^−8 M of radiolabeled peptide substrate. As a substrate for measuring HDAC activity a synthetic peptide, i.e. the amino acids 14-21 of histone H4, was used. The substrate is biotinylated at the NH2-terminal part with a 6-aminohexanoic acid spacer, and is protected at the COOH-terminal part by an amide group and specifically [^3H]acetylated at lysine 16. The substrate, biotin-(6-aminohexanoic)Gly-Ala-([^3H]-acetyl-Lys-Arg-His-Arg-Lys-Val-NH2), was added in a buffer containing 25 mM Hepes, 1 M sucrose, 0.1 mg/ml BSA and 0.01% Triton X-100 at pH 7.4. After 30 min the deacetylation reaction was terminated by the addition of HCl and acetic acid. (final concentration 0.035 mM and 3.8 mM respectively). After stopping the reaction, the free ^3H-acetate was extracted with ethylacetate. After mixing and centrifugation, the radioactivity in an aliquot of the upper (organic) phase was counted in a β-counter. For each experiment, controls (containing HeLa nuclear extract and DMSO without compound), a blank incubation (containing DMSO but no HeLa nuclear extract or compound) and samples (containing compound dissolved in DMSO and HeLa nuclear extract) were run in parallel. In first instance, compounds were tested at a concentration of 10^−5M. […] In each test the blank value was subtracted from both the control and the sample values. The control sample represented 100% of substrate deacetylation. For each sample the radioactivity was expressed as a percentage of the mean value of the controls. […] Herein the effects of test compounds are expressed as pIC50 (the negative log value of the IC50-value).

| SMILES | Enzyme activity pIC50 |
| --- | --- |
| O=C(NO)c1ccc(N2CCC(NC(=O)c3ccc4ccccc4c3)CC2)nc1 [compound 5] | 6.861 |
| Cn1c(C(=O)NC2CCN(c3ccc(C(=O)NO)cn3)CC2)cc2ccccc21 [compound 7] | 6.416 |
| O=C(Cc1c[nH]c2ccccc12)NC1CCN(c2ccc(C(=O)NO)cn2)CC1 [compound 13] | 7.061 |
| COc1cc(C(=O)NC2CCN(c3ccc(C(=O)NO)cn3)CC2)nc2ccccc12 [Co. No. 2] | 6.794 |
| O=C(NO)c1cnc(N2CC[C@H](O)[C@H](CNS(=O)(=O)c3ccc4ccccc4c3)C2)nc1 [compound 11] | 6.215 |
| O=C(CC(c1ccccc1)c1ccccc1)NC1CCN(c2ccc(C(=O)NO)cn2)CC1 [compound 12] | 6.909 |
| O=C(NO)c1ccc(N2CCC(NC(=O)C3CCc4ccccc43)CC2)nc1 (centres unmarked) [compound 14] | 6.611 |
| O=C(NO)c1ccc(N2CCC(NC(=O)c3ccc4ccccc4c3)CC2)cc1 [Co. No. 1] | 5.649 |
| COc1ccc2[nH]c(C(=O)NC3CCN(c4ccc(C(=O)NO)cn4)CC3)cc2c1 [compound 10] | 7.19 |
| O=C(NO)c1cnc(N2CCC(CNC(=O)c3ccc4ccccc4c3)CC2)nc1 [Co. No. 3] | 8.103 |
| O=C(NO)c1ccc(N2CCC(NC(=O)c3cc4ccccc4cn3)CC2)nc1 [compound 6] | 6.951 |
| Cn1cc(C(=O)NC2CCN(c3ccc(C(=O)NO)cn3)CC2)c2ccccc21 [compound 9] | 6.774 |
| O=C(NO)c1ccc(N2CCC(NC(=O)c3cc4cc(F)ccc4[nH]3)CC2)nc1 [compound 8] | 6.94 |

test system: A2780 ovarian carcinoma cells; test: Antiproliferative activity on A2780 cells (MTT); type: cell-based, human; details: Homo sapiens, 96 h, four days of incubation, read-out: Cellular activity pIC50 (converted)
Method: Cellular activity of the compounds of formula (I) was determined on A2780 tumour cells using a colorimetric assay for cell toxicity or survival (Mosmann Tim, Journal of Immunological Methods 65: 55-63, 1983)(see example C.2).
All compounds tested were dissolved in DMSO and further dilutions were made in culture medium. Final DMSO concentrations never exceeded 0.1% (v/v) in cell proliferation assays. Controls contained A2780 cells and DMSO without compound and blanks contained DMSO but no cells. MTT was dissolved at 5 mg/ml in PBS. A glycine buffer comprised of 0.1 M glycine and 0.1 M NaCl buffered to pH 10.5 with NaOH (1 N) was prepared (all reagents were from Merck).
The human A2780 ovarian carcinoma cells (a kind gift from Dr. T. C. Hamilton [Fox Chase Cancer Centre, Pennsylvania, USA]) were cultured in RPMI 1640 medium supplemented with 2 mM L-glutamine, 50 μg/ml gentamicin and 10% fetal calf serum. Cells were routinely kept as monolayer cultures at 37° C. in a humidified 5% CO2 atmosphere. Cells were passaged once a week using a trypsin/EDTA solution at a split ratio of 1:40. All media and supplements were obtained from Life Technologies. Cells were free of mycoplasma contamination as determined using the Gen-Probe Mycoplasma Tissue Culture kit (supplier: BioMérieux).
Cells were seeded in NUNC™ 96-well culture plates (Supplier: Life Technologies) and allowed to adhere to the plastic overnight. Densities used for plating were 1500 cells per well in a total volume of 200 μl medium. After cell adhesion to the plates, medium was changed and drugs and/or solvents were added to a final volume of 200 Following four days of incubation, medium was replaced by 200 μl fresh medium and cell density and viability was assessed using an MTT-based assay. To each well, 25 μl MTT solution was added and the cells were further incubated for 2 hours at 37° C. The medium was then carefully aspirated and the blue MTT-formazan product was solubilized by addition of 25 μl glycine buffer followed by 100 μl of DMSO. […] Within an experiment, the results for each experimental condition are the mean of 3 replicate wells. For initial screening purposes, compounds were tested at a single fixed concentration of 10^−6 M. For active compounds, the experiments were repeated to establish full concentration-response curves. For each experiment, controls (containing no drug) and a blank incubation (containing no cells or drugs) were run in parallel. The blank value was subtracted from all control and sample values. For each sample, the mean value for cell growth (in absorbance units) was expressed as a percentage of the mean value for cell growth of the control. […] Herein the effects of test compounds are expressed as pIC50 (the negative log value of the IC50-value).

| SMILES | IC50 |
| --- | --- |
| COc1cc(C(=O)NC2CCN(c3ccc(C(=O)NO)cn3)CC2)nc2ccccc12 [Co. No. 2] | 1790 nM |
| O=C(NO)c1ccc(N2CCC(NC(=O)c3ccc4ccccc4c3)CC2)cc1 [Co. No. 1] | 4510 nM |
| O=C(NO)c1cnc(N2CCC(CNC(=O)c3ccc4ccccc4c3)CC2)nc1 [Co. No. 3] | 132 nM |

same assay, conditions: four days of incubation

| SMILES | Cellular activity pIC50 |
| --- | --- |
| O=C(NO)c1ccc(N2CCC(NC(=O)c3ccc4ccccc4c3)CC2)nc1 [compound 5] | 5.664 |
| Cn1c(C(=O)NC2CCN(c3ccc(C(=O)NO)cn3)CC2)cc2ccccc21 [compound 7] | 5.331 |
| O=C(Cc1c[nH]c2ccccc12)NC1CCN(c2ccc(C(=O)NO)cn2)CC1 [compound 13] | <5 |
| O=C(NO)c1cnc(N2CC[C@H](O)[C@H](CNS(=O)(=O)c3ccc4ccccc4c3)C2)nc1 [compound 11] | <5 |
| O=C(CC(c1ccccc1)c1ccccc1)NC1CCN(c2ccc(C(=O)NO)cn2)CC1 [compound 12] | 5.562 |
| O=C(NO)c1ccc(N2CCC(NC(=O)C3CCc4ccccc43)CC2)nc1 (centres unmarked) [compound 14] | 5.175 |
| COc1ccc2[nH]c(C(=O)NC3CCN(c4ccc(C(=O)NO)cn4)CC3)cc2c1 [compound 10] | 5.747 |
| O=C(NO)c1ccc(N2CCC(NC(=O)c3cc4ccccc4cn3)CC2)nc1 [compound 6] | 5.86 |
| Cn1cc(C(=O)NC2CCN(c3ccc(C(=O)NO)cn3)CC2)c2ccccc21 [compound 9] | 5.579 |
| O=C(NO)c1ccc(N2CCC(NC(=O)c3cc4cc(F)ccc4[nH]3)CC2)nc1 [compound 8] | 5.497 |

test system: not listed separately; test: Kinetic solubility in aqueous media; type: physicochemical; details: aqueous buffer, kinetic from dmso stock; phosphate citrate buffer pH 7.4, turbidity by nephelometer; read-out: Solubility Score
Method: Kinetic solubility in aqueous media measures the ability of a compound to stay in aqueous solution upon dilution (see example C.3).
DMSO-stock solutions are diluted with a single aqueous buffer solvent in 3 consecutive steps. For every dilution turbidity is measured with a nephelometer.
In the first dilution step, 10 μl of a concentrated stock-solution of the active compound, solubilized in DMSO (5 mM), was added to 100 μl phosphate citrate buffer pH 7.4 and mixed. In the second dilution step, an aliquot (20 μl) of the first dilution step was further dispensed in 100 μl phosphate citrate buffer pH 7.4 and mixed. Finally, in the third dilution step, a sample (20 μl) of the second dilution step was further diluted in 100 μl phosphate citrate buffer pH 7.4 and mixed. All dilutions were performed in 96-well plates Immediately after the last dilution step the turbidity of the three consecutive dilution steps were measured with a nephelometer. Dilution was done in triplicate for each compound to exclude occasional errors. Based on the turbidity measurements a ranking is performed into 3 classes. Compounds with high solubility obtained a score of 3 and for this compounds the first dilution is clear. Compounds with medium solubility obtained a score of 2. For these compounds the first dilution is unclear and the second dilution is clear.

| SMILES | solubility |
| --- | --- |
| COc1cc(C(=O)NC2CCN(c3ccc(C(=O)NO)cn3)CC2)nc2ccccc12 [Co. No. 2] | > 454 µM |
| O=C(NO)c1cnc(N2CCC(CNC(=O)c3ccc4ccccc4c3)CC2)nc1 [Co. No. 3] | < 75.8 µM |

test system: not given; test: not given; details: not given

| SMILES | melting point |
| --- | --- |
| O=C(NO)c1cnc(N2CCC(CNC(=O)c3ccc4ccccc4c3)CC2)nc1 [Co. No. 3] | 226 °C |
